From patent publication US7279161B2, “Factor IX/factor IXa activating antibodies and antibody derivatives” (Baxter Aktiengesellschaft, priority 1999, dated 2007)

Biological target: T1, human FIXa (Homo sapiens, UniProt P00740)
T1 construct: with (+) and without (−) addition of 50 ng human FIXaβ; purchased ERL (Enzyme Research Laboratories)
Experiment: Chromogenic FVIII-like (FXa generation) assay with human FIXa added
Type: biochemical
Outline: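 FXa generation at 37 °C with bovine FIXa/FX plus phospholipids, 25 mM CaCl2 stock, S-2222 substrate and thrombin inhibitor I-2581; 50 ng human FIXa added per reaction. Absorbance at 405 and 490 nm read from 5 min to 2 h against a reagent blank.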

T1 sequence (P00740 47-191 limits assumed): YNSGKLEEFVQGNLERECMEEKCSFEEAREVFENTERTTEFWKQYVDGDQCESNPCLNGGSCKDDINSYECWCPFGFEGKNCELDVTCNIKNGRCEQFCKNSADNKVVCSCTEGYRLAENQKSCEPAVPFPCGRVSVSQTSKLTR
T1 sequence (P00740 227-461 limits assumed): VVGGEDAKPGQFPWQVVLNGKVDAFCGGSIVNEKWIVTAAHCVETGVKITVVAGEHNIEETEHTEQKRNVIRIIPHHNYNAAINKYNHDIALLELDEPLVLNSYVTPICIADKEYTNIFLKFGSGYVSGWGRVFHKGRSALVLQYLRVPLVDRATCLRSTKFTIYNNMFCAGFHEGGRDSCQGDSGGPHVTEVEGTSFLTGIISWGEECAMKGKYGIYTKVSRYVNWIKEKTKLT

How did the “chromogenic FVIII-like activity (FXa generation)” value (2.9 nM human FIXa) turn out when RRREGGGYYVNWYFDRRR [A1/3] was run?
Its value is “readily measurable FXa generation”.

What about the chromogenic activity (12 μM peptide, 2.3 nM human FIXa) of the same sequence?
Its chromogenic activity is “virtually unchanged”.

What about the “chromogenic FVIII-like activity” value (24 μM, with vs without 2.3 nM human FIXa) of the same sequence?
Its value is “the reaction takes place only in the presence of human FIXa”.
